The source of these data is paper PMC8518411, “Discovery of GPR183 Agonists Based on an Antagonist Scaffold” (Chemmedchem, 2021).

“Also recorded” adds a separate entry of the source. Like-named read-outs stand apart in the source and are kept apart here.

Assay [1] deals with T1, GPR183 (Homo sapiens, UniProt P32249). In words: cell-based.
Assay [2] has as its target T1, GPR183. In kind it is cell-based. Also on record: hemagglutinin signal peptide (upstream of the FLAG tag) (N); expressed in transfected cells; host or cells: CHO-K1 (ATCC CCL-61), transient lipofection, modified pcDNA3 vector. Particulars: for agonist activity in calcium mobilization screen: 10 μM compound. Background: Calcium assays in cells follow changes in intracellular calcium, usually with a dye or a luminescent sensor.

The target in assay [3] is T1, GPR183. In words: BRET cAMP (CAMYEL biosensor) assay, antagonist mode (antagonist added 10 min prior to agonist). In kind it is cell-based. Details: hemagglutinin signal peptide (upstream of the FLAG tag) (N); expressed in transfected cells; host or cells: CHO-K1 (ATCC CCL-61), transient lipofection, modified pcDNA3 vector. Background: BRET reads energy transfer from a luciferase to a nearby fluorophore.

Assay [4] has as its target T1, GPR183. The following applies: dose-response, BRET.
Where [5] appears, read: calcium assay dose-response, mean of 3 experiments in duplicates, read-out: EC50 (potency).
Where [6] appears, read: EC50 (potency), Gαi coupling, BRET, three experiments.

T1 sequence (P32249 whole entry): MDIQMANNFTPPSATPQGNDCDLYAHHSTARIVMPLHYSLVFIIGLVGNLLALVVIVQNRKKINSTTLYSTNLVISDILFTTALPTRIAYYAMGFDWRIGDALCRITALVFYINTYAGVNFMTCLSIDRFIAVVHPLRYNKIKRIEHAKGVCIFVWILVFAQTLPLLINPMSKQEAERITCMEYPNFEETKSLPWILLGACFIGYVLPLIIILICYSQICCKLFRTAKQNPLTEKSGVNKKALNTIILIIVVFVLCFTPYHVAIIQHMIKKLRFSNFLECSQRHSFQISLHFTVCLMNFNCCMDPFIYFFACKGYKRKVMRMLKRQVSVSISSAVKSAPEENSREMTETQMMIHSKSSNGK

One may read the EC50 as the concentration needed to bring the measured effect to its halfway point. As for `C[C@H](CCCC(C)(C)O)[C@H]1CC[C@H]2[C@@H]3[C@H](O)C=C4C[C@@H](O)CC[C@]4(C)[C@H]3CC[C@]12C` [Compound 1, 7α,25‐dihydroxycholesterol, reference compound], the concentration for a half-maximal effect (EC50) on GPR183 [1] was 19 nM; at GPR183 [2] it was 17 nM.
Turning to `Cc1nn(C)c(C)c1/C=C/C(=O)N1CCN(C(=O)C2COc3ccccc3O2)CC1` (centres unmarked) [Compound 9], the EC50 at GPR183 [2] (setting [5]) was found to be 634 nM.
Turning to `O=C(/C=C/c1cccs1)N1CCN(C(=O)c2cccc3ccccc23)CC1` [Compound 10], the EC50 on GPR183 [2] (setting [5]) came to 86 nM.
Same read-out and setting: in the case of `O=C(/C=C/c1ccccc1Br)N1CCN(C(=O)Cc2ccc(F)cc2)CC1` [Compound 12] it was 107 nM; in that of `O=C(CCC1CCCC1)N1CCN(C(=O)c2cc(=O)c3ccccc3o2)CC1` [Compound 13], 165 nM.
With `O=C(COc1cccc2ccccc12)N1CCN(C(=O)c2ccccc2)CC1` [Compound 15], the EC50 was determined as 660 nM on GPR183 [1] (setting [6]) and 209 nM on GPR183 [2] (setting [5]).
For the molecule `COc1cc(C(=O)N2CCN(C(=O)COc3ccc(Cl)cc3C)CC2)ccc1C` [Compound 16], the concentration for a half-maximal effect (EC50) at GPR183 [1] (setting [6]) is 51 nM; at GPR183 [1] (pEC50±SE, Gαi coupling, BRET), 50.1 nM; on GPR183 [2] (setting [5]) it was 179 nM.
As for `O=C(COc1ccc(F)cc1Br)N1CCN(C(=O)C2COc3ccccc3O2)CC1` (centres unmarked) [Compound 17], the EC50 at GPR183 [2] (setting [5]) amounted to 278 nM.
As for `O=C(COc1ccc(F)cc1Cl)N1CCN(C(=O)c2cccs2)CC1` [Compound 18], the “agonist activity in calcium mobilization screen” value at GPR183 [2] was “active”. Also, the EC50 at GPR183 [2] (setting [5]) was 740 nM.
For `O=C(COc1ccc2c(c1)CCC2)N1CCN(C(=O)c2cccs2)CC1` [Compound 69], the “agonist activity in calcium mobilization screen” value at GPR183 [2] was “inactive”.
By inhibition is commonly meant the relative decrease from the control value, in per cent. Turning to `O=C(/C=C/c1ccccc1)N1CCN(C(=O)c2ccccc2)CC1` [Compound 88], the inhibition at 10 µM on GPR183 [3] (10 μM (highest concentration tested), 10 nM of agonist 1 after preincubation, read-out: inhibition of G protein activity induced by 1) turned out to be 79%.
Take `O=C(COc1ccccc1)N1CCN(C(=O)c2ccccc2)CC1` [Compound 90]: the “agonist activity (Gαi coupling)” value at GPR183 [4] was “inactive”. On GPR183 [3] (10 nM of agonist 1 after preincubation with compound), the “antagonist properties (inhibition of G protein activity induced by 1)” value is on record as “did not inhibit”.
As to `Cc1cc(Cl)ccc1OCC(=O)N1CCN(C(=O)c2ccccc2)CC1` [Compound 91], the “agonist activity (Gαi coupling)” value at GPR183 [4] was “partial agonist properties; also recorded: active”. The EC50 was 64 nM on GPR183 [1] (setting [6]) and 63.1 nM at GPR183 [1] (pEC50±SE, Gαi coupling, BRET).
Consider `COc1cc(C(=O)N2CCN(C(=O)COc3cccc4ccccc34)CC2)ccc1C` [Compound 92], for which the “agonist activity (Gαi coupling)” value at GPR183 [4] is reported as “partial agonist properties”. The same molecule yielded an EC50 at GPR183 [1] (setting [6]) of 757 nM.
